# Molecular target: T1, ALK2R206H (mutant ALK2, N-terminally tagged with GST) (Homo sapiens, UniProt Q04771, R206H)
# T1 construct: purchased Carna Bioscience or ThermoFisher 09-148 or PV6232
# T1 sequence (Q04771 21-509 R206H): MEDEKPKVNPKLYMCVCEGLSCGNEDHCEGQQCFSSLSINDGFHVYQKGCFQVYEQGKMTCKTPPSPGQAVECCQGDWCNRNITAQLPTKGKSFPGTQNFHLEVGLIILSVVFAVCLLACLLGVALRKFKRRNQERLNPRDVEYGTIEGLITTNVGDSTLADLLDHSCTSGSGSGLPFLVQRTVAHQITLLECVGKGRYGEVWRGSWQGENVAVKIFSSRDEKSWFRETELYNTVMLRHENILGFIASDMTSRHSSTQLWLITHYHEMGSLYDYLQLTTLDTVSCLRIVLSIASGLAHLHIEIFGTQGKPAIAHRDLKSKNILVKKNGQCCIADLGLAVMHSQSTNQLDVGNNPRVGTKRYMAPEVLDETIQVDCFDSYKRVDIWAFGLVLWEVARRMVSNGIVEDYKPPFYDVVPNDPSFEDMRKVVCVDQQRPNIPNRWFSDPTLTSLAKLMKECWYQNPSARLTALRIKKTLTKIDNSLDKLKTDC
# Assay: ALK binding assay (LANTHASCREEN TR-FRET competitive binding, displacement of Kinase Tracer 178)
# Conditions: read-out: Binding Assay (IC50 class)
# How it was run: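 GST-tagged ALK2 R206H (2-5 nM) mixed with Eu-anti-GST antibody (4-10 nM), Kinase Tracer 178 (50 nM, near its Kd) and compound titration (1% DMSO) in Kinase Buffer A, 30 min at room temperature. Tracer displacement read as TR-FRET ratio, normalized to controls; IC50 from 4-parameter fit.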
row,Structure (SMILES),IC50
1,O=C(OC1COC1)N1CCN(c2ccnc3[nH]c(-c4cn(C(F)F)cn4)cc23)CC1 [Compound 280],≤ 10 nM
2,CCOC(=O)N1CCN(c2ccnc3[nH]c(-c4ccc(C(C)(C)C#N)cn4)cc23)CC1 [Compound 282],≤ 10 nM
3,O=C(OC1COC1)N1CCN(c2ccnc3[nH]c(-c4ccc([C@@]5(O)CCOC5)cc4)cc23)CC1 [Compound 428],≤ 10 nM
4,Cc1nc(-c2[nH]c3nccc(N4CCN(C(=O)OC5CC5)CC4)c3c2C#N)cn1C [Compound 201],≤ 10 nM
5,Cc1nc(-c2[nH]c3nccc(N4CCN(C(=O)OC5COC5)CC4)c3c2C#N)cn1C [Compound 288],≤ 10 nM
6,Cc1nc(-c2[nH]c3nccc(N4CCN(C(=O)OC5CCC5(F)F)CC4)c3c2C#N)cn1C (stereo not drawn) [Compound 413],≤ 10 nM
7,CCOC(=O)N1CCN(c2ccnc3[nH]c(-c4csc(C)n4)cc23)CC1 [Compound 46],≤ 10 nM
8,CCOC(=O)N1CCN(c2ccnc3[nH]c(-c4ccc([C@]5(O)CCOC5)cc4)cc23)CC1 [Compound 354],≤ 10 nM
9,N#Cc1c(-c2cn3c(n2)COCC3)[nH]c2nccc(N3CCN(C(=O)OC4COC4)CC3)c12 [Compound 394],≤ 10 nM
10,N#Cc1c(-c2cn3c(n2)CCC3)[nH]c2nccc(N3CCN(C(=O)OC4COC4)CC3)c12 [Compound 342],≤ 10 nM
11,COC1(c2ccc(-c3cc4c(N5CCN(C(=O)OC6COC6)CC5)ccnc4[nH]3)c(C#N)c2)CCOCC1 [Compound 472],≤ 10 nM
12,Cn1cnc(-c2[nH]c3nccc(N4CCN(C(=O)OC5CCC5)CC4)c3c2C#N)c1 [Compound 199],≤ 10 nM
13,Cn1cnc(-c2[nH]c3nccc(N4CCN(C(=O)OC5COC5)CC4)c3c2Cl)c1 [Compound 274],≤ 10 nM
14,CCOC(=O)N1CCN(c2ccnc3[nH]c(-c4ncc(OC)cc4C#N)cc23)CC1 [Compound 204],≤ 10 nM

# The next lines start with the values.
row,IC50,Structure (SMILES)
1,≤ 10 nM,CC(C)n1cc(-c2cc3c(N4CCN(C(=O)C5CC5)CC4)ccnc3[nH]2)cn1 [Compound 65]
2,≤ 10 nM,C[S+]([O-])c1ccc(-c2cc3c(N4CCN(C(=O)C5CC5)CC4)ccnc3[nH]2)cc1 (stereo not drawn) [Compound 225]
3,≤ 10 nM,CC(C#N)Cn1cc(-c2cc3c(N4CCN(C(=O)OC5COC5)CC4)ccnc3[nH]2)cn1 (stereo not drawn) [Compound 352]
4,≤ 10 nM,Cn1cc(-c2cc3c(N4CCN(C(=O)[C@H]5C[C@H](C#N)C5)CC4)ccnc3[nH]2)cn1 [Compound 123]
5,≤ 10 nM,O=C(O[C@H]1C[C@H](F)C1)N1CCN(c2ccnc3[nH]c(-c4cn(C(F)F)cn4)cc23)CC1 [Compound 345]
6,10 to 50 nM,CCC(C)C(=O)N1CCN(c2ccnc3[nH]c(-c4cnn(C)c4)cc23)CC1 (stereo not drawn) [Compound 33]
7,≤ 10 nM,Cn1cc(-c2[nH]c3nccc(N4CCN(C(=O)O[C@H]5CCOC5)CC4)c3c2C#N)cn1 [Compound 289]
8,≤ 10 nM,Cn1cc(-c2[nH]c3nccc(N4CCN(C(=O)OC5COC5)CC4)c3c2Cl)cn1 [Compound 276]
9,≤ 10 nM,Cn1cc(-c2cc3c(N4CCN(C(=O)OC5COC5)CC4)ccnc3[nH]2)nc1Cl [Compound 275]
10,≤ 10 nM,Cn1cc(-c2cc3c(N4CCN(C(=O)OCC5COC5)CC4)ccnc3[nH]2)cn1 [Compound 153]

# Molecular target: T2, human ALK2 R206H (Homo sapiens, UniProt Q04771, R206H)
# T2 construct: expressed in transfected cells; host or cells: HEK293 (ATCC CRL1573), lentivirus transduction, blasticidin selection
# T2 sequence (Q04771 21-509 R206H): T1 sequence (Q04771 21-509 R206H)
# Assay: Cell-based ALK2-R206H cell activity assay (Smad1-Ser463/Ser465 phosphorylation by AlphaLISA in HEK293-ALK2-R206H cells)
# Conditions: phospho-Smad1 AlphaLISA, read-out: Cell Line (Cell Assay, IC50 class)
# How it was run: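 HEK293 stable line expressing human ALK2 R206H with C-terminal FLAG, plated overnight in serum-free medium. Cells were treated 2-3 h with compound over 10 3-fold doses, top 10 μM or 1 μM, in duplicate. Phospho-Smad1 Ser463/465 in lysate was read by AlphaLISA; IC50 was normalised to DMSO (0%) and 1 μM LDN193189 (100%).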
row,Structure (SMILES),IC50
1,O=C(OC1COC1)N1CCN(c2ccnc3[nH]c(-c4cn(C(F)F)cn4)cc23)CC1 [Compound 280],≤ 100 nM
2,CCOC(=O)N1CCN(c2ccnc3[nH]c(-c4ccc(C(C)(C)C#N)cn4)cc23)CC1 [Compound 282],≤ 100 nM
3,O=C(OC1COC1)N1CCN(c2ccnc3[nH]c(-c4ccc([C@@]5(O)CCOC5)cc4)cc23)CC1 [Compound 428],≤ 100 nM
4,Cc1nc(-c2[nH]c3nccc(N4CCN(C(=O)OC5CC5)CC4)c3c2C#N)cn1C [Compound 201],≤ 100 nM
5,Cc1nc(-c2[nH]c3nccc(N4CCN(C(=O)OC5COC5)CC4)c3c2C#N)cn1C [Compound 288],≤ 100 nM
6,Cc1nc(-c2[nH]c3nccc(N4CCN(C(=O)OC5CCC5(F)F)CC4)c3c2C#N)cn1C (stereo not drawn) [Compound 413],≤ 100 nM
7,CCOC(=O)N1CCN(c2ccnc3[nH]c(-c4csc(C)n4)cc23)CC1 [Compound 46],≤ 100 nM
8,CCOC(=O)N1CCN(c2ccnc3[nH]c(-c4ccc([C@]5(O)CCOC5)cc4)cc23)CC1 [Compound 354],≤ 100 nM
9,N#Cc1c(-c2cn3c(n2)COCC3)[nH]c2nccc(N3CCN(C(=O)OC4COC4)CC3)c12 [Compound 394],≤ 100 nM
10,N#Cc1c(-c2cn3c(n2)CCC3)[nH]c2nccc(N3CCN(C(=O)OC4COC4)CC3)c12 [Compound 342],≤ 100 nM
11,COC1(c2ccc(-c3cc4c(N5CCN(C(=O)OC6COC6)CC5)ccnc4[nH]3)c(C#N)c2)CCOCC1 [Compound 472],≤ 100 nM
12,Cn1cnc(-c2[nH]c3nccc(N4CCN(C(=O)OC5CCC5)CC4)c3c2C#N)c1 [Compound 199],≤ 100 nM
13,Cn1cnc(-c2[nH]c3nccc(N4CCN(C(=O)OC5COC5)CC4)c3c2Cl)c1 [Compound 274],≤ 100 nM
14,CCOC(=O)N1CCN(c2ccnc3[nH]c(-c4ncc(OC)cc4C#N)cc23)CC1 [Compound 204],100 to 500 nM

# Continued, values first:
row,IC50,Structure (SMILES)
1,≤ 100 nM,CC(C)n1cc(-c2cc3c(N4CCN(C(=O)C5CC5)CC4)ccnc3[nH]2)cn1 [Compound 65]
2,100 to 500 nM,C[S+]([O-])c1ccc(-c2cc3c(N4CCN(C(=O)C5CC5)CC4)ccnc3[nH]2)cc1 (stereo not drawn) [Compound 225]
3,100 to 500 nM,CC(C#N)Cn1cc(-c2cc3c(N4CCN(C(=O)OC5COC5)CC4)ccnc3[nH]2)cn1 (stereo not drawn) [Compound 352]
4,100 to 500 nM,Cn1cc(-c2cc3c(N4CCN(C(=O)[C@H]5C[C@H](C#N)C5)CC4)ccnc3[nH]2)cn1 [Compound 123]
5,≤ 100 nM,O=C(O[C@H]1C[C@H](F)C1)N1CCN(c2ccnc3[nH]c(-c4cn(C(F)F)cn4)cc23)CC1 [Compound 345]
6,100 to 500 nM,CCC(C)C(=O)N1CCN(c2ccnc3[nH]c(-c4cnn(C)c4)cc23)CC1 (stereo not drawn) [Compound 33]
7,≤ 100 nM,Cn1cc(-c2[nH]c3nccc(N4CCN(C(=O)O[C@H]5CCOC5)CC4)c3c2C#N)cn1 [Compound 289]
8,≤ 100 nM,Cn1cc(-c2[nH]c3nccc(N4CCN(C(=O)OC5COC5)CC4)c3c2Cl)cn1 [Compound 276]
9,≤ 100 nM,Cn1cc(-c2cc3c(N4CCN(C(=O)OC5COC5)CC4)ccnc3[nH]2)nc1Cl [Compound 275]
10,100 to 500 nM,Cn1cc(-c2cc3c(N4CCN(C(=O)OCC5COC5)CC4)ccnc3[nH]2)cn1 [Compound 153]
